{"source": "patent US7368422B2", "about": "“Semi-synthetic rearranged vancomycin/desmethyl-vancomycin-based glycopeptides with antibiotic activity” (Novartis Vaccines and Diagnostics Inc., priority 2005, dated 2008)", "assay_type_in_all_cases": "cell-based", "key": {"[1]": {"test_system": "methicillin-resistant Staphylococus aureus (MRSA)", "assay": "MIC, NCCLS microdilution broth procedure, MRSA", "method": "(§1) The following table identifies specific species of compounds according to the present invention and information concerning their associated antibacterial activity. The antibacterial activity of a compound in accordance with the present invention, chloro-biphenyl-rearranged norvacomycin (B), was tested and compared to unmodified vancomycin (Van) and norvancoycin (Nor). MIC (minimum inhibitory concentration) was measured according to NCCLS standards using the microdilution broth prodcedure. Serial dilutions of the compounds were placed in a 96-well microplate containing Mueller-Hinton medium. Based on absorbance of 600 nm, diluted overnight cultures were placed in the wells at a final concentration of 5×10^5 cfu/mL. The plate was then placed in a culture box at 35° C. The next day, MIC was determined by visual observation of the plates. The glycopeptides were tested against a variety of strains well known in the art for such testing, including methicillin-susceptible Staphylococus aureus (MSSA), methicillin-susceptible Staphylococus epidermidis (MSSE), methicillin-resistant Staphylococus aureus (MRSA), methicllin-resistant Staphylococus epidermidis (MRSE), and glycopeptide-intermediate Staphylococus aureus (GISA). Results are shown in the Table 1 as minimum inhibitory concentration (MIC) in units of μg/ml: […]"}, "[2]": {"test_system": "methicillin-susceptible Staphylococus aureus (MSSA)", "assay": "MIC, NCCLS microdilution broth procedure, MSSA", "method": "as §1"}, "[3]": {"test_system": "methicllin-resistant Staphylococus epidermidis (MRSE)", "assay": "MIC, NCCLS microdilution broth procedure, MRSE", "method": "as §1"}, "[4]": {"test_system": "glycopeptide-intermediate Staphylococus aureus (GISA) (D)", "assay": "MIC, NCCLS microdilution broth procedure, GISA (D)", "method": "as §1"}, "[5]": {"test_system": "glycopeptide-intermediate Staphylococus aureus (GISA) (V)", "assay": "MIC, NCCLS microdilution broth procedure, GISA (V)", "method": "as §1"}, "[6]": {"test_system": "methicillin-susceptible Staphylococus epidermidis (MSSE)", "assay": "MIC, NCCLS microdilution broth procedure, MSSE", "method": "as §1"}}, "data": [{"smiles": "CC(C)C[C@@H](N)C(=O)N[C@H]1C(=O)N[C@@H](CC(N)=O)C(=O)N[C@H]2C(=O)N[C@H]3C(=O)N[C@H](C(=O)N[C@H](C(=O)O)c4cc(O)cc(O)c4-c4cc3ccc4O)[C@H](O)c3ccc(c(Cl)c3)Oc3cc2cc(c3O[C@@H]2O[C@H](CO)[C@@H](O)[C@H](O)[C@H]2O[C@H]2C[C@](C)(N)[C@H](O)[C@H](C)O2)Oc2ccc(cc2Cl)[C@H]1O", "note": "[Nor, norvancoycin]", "values": [{"measurement": "minimum inhibitory concentration (MIC)", "setting": "[1]; MRSA strain # 134", "value": 2, "unit": "µg/mL"}, {"measurement": "minimum inhibitory concentration (MIC)", "setting": "[1]; MRSA strain # 143", "value": 2, "unit": "µg/mL"}, {"measurement": "minimum inhibitory concentration (MIC)", "setting": "[2]; MSSA strain # 68", "value": 2, "unit": "µg/mL"}, {"measurement": "minimum inhibitory concentration (MIC)", "setting": "[2]; MSSA strain # 83", "value": 2, "unit": "µg/mL"}, {"measurement": "minimum inhibitory concentration (MIC)", "setting": "[3]; MRSE strain # 24", "value": 2, "unit": "µg/mL"}, {"measurement": "minimum inhibitory concentration (MIC)", "setting": "[3]; MRSE strain # 25", "value": 2, "unit": "µg/mL"}, {"measurement": "minimum inhibitory concentration (MIC)", "setting": "[3]; MRSE strain # 26", "value": 2, "unit": "µg/mL"}, {"measurement": "minimum inhibitory concentration (MIC)", "setting": "[4]; GISA (D) strain # 68", "value": 4, "unit": "µg/mL"}, {"measurement": "minimum inhibitory concentration (MIC)", "setting": "[4]; GISA (D) strain # 143", "value": 4, "unit": "µg/mL"}, {"measurement": "minimum inhibitory concentration (MIC)", "setting": "[5]; GISA (V) strain # 68", "value": 4, "unit": "µg/mL"}, {"measurement": "minimum inhibitory concentration (MIC)", "setting": "[5]; GISA (V) strain # 143", "value": 8, "unit": "µg/mL"}, {"measurement": "minimum inhibitory concentration (MIC)", "setting": "[6]; MSSE strain # 3", "value": 2, "unit": "µg/mL"}, {"measurement": "minimum inhibitory concentration (MIC)", "setting": "[6]; MSSE strain # 10", "value": 2, "unit": "µg/mL"}]}, {"smiles": "CN[C@H](CC(C)C)C(=O)N[C@H]1C(=O)N[C@@H](CC(N)=O)C(=O)N[C@H]2C(=O)N[C@H]3C(=O)N[C@H](C(=O)N[C@H](C(=O)O)c4cc(O)cc(O)c4-c4cc3ccc4O)[C@H](O)c3ccc(c(Cl)c3)Oc3cc2cc(c3O[C@@H]2O[C@H](CO)[C@@H](O)[C@H](O)[C@H]2O[C@H]2C[C@](C)(N)[C@H](O)[C@H](C)O2)Oc2ccc(cc2Cl)[C@H]1O", "note": "[Van, vancomycin]", "values": [{"measurement": "minimum inhibitory concentration (MIC)", "setting": "[1]; MRSA strain # 134", "value": 2, "unit": "µg/mL"}, {"measurement": "minimum inhibitory concentration (MIC)", "setting": "[1]; MRSA strain # 143", "value": 2, "unit": "µg/mL"}, {"measurement": "minimum inhibitory concentration (MIC)", "setting": "[2]; MSSA strain # 68", "value": 2, "unit": "µg/mL"}, {"measurement": "minimum inhibitory concentration (MIC)", "setting": "[2]; MSSA strain # 83", "value": 2, "unit": "µg/mL"}, {"measurement": "minimum inhibitory concentration (MIC)", "setting": "[3]; MRSE strain # 24", "value": 2, "unit": "µg/mL"}, {"measurement": "minimum inhibitory concentration (MIC)", "setting": "[3]; MRSE strain # 25", "value": 2, "unit": "µg/mL"}, {"measurement": "minimum inhibitory concentration (MIC)", "setting": "[3]; MRSE strain # 26", "value": 2, "unit": "µg/mL"}, {"measurement": "minimum inhibitory concentration (MIC)", "setting": "[4]; GISA (D) strain # 68", "value": 8, "unit": "µg/mL"}, {"measurement": "minimum inhibitory concentration (MIC)", "setting": "[4]; GISA (D) strain # 143", "value": 4, "unit": "µg/mL"}, {"measurement": "minimum inhibitory concentration (MIC)", "setting": "[5]; GISA (V) strain # 68", "value": 8, "unit": "µg/mL"}, {"measurement": "minimum inhibitory concentration (MIC)", "setting": "[5]; GISA (V) strain # 143", "value": 8, "unit": "µg/mL"}, {"measurement": "minimum inhibitory concentration (MIC)", "setting": "[6]; MSSE strain # 3", "value": 2, "unit": "µg/mL"}, {"measurement": "minimum inhibitory concentration (MIC)", "setting": "[6]; MSSE strain # 10", "value": 2, "unit": "µg/mL"}]}]}
